The values that follow come from patent US20160031927A1 (ASAVI, LLC, priority 2013, published 2016).

Data set [1] deals with subgenomic RNA-replicon HCV (genotype 1a). The experiment in a line: Antiviral activity in Huh7 cells with subgenomic HCV RNA-replicon, ELISA on viral cor-antigen (genotype 1a). The data set is classed as cell-based. On the procedure: (§1) Antiviral activity (EC50) of nucleoside inhibitors of HCV RNA-polymerase NS5B of the general formula 1, 2 and 3 (further—test compounds) was determined in the human hepatoma cell line Huh7, comprising subgenomic RNA-replicon HCV (genotype 1b, 1a and 2a). For quantitative estimation of viral replication was used a version of immune test ELISA on viral cor-antigen in 96-well plate. Cytotoxicity of the compounds was estimated in parallel regime. As a reference substance was used PSI-7977. Cells Huh7 were seeded in 96-well plate (7.5×10^3 cells to each well in 100 μl of culture medium). Solutions of the tested compounds in DMEM medium {DMEM 1×; Source: Cellgro; Catalogue: 10-013-CV} were prepared immediately before use. Eleven serial three fold dilutions with concentrations from 20 nM to […] were prepared. In 4 hours after seeding, serial dilutions of the compounds were added to the cells (100 μl to each well). Final concentration of tested compounds was varied from 10 nM to 0.1 pM, and DMSO—0.5%. If it was necessary, higher concentrations of the test compounds were investigated. Each dilution of the compound was tested on two identical wells. Then the cells were incubated for three days at 37° C./5% CO2 and fixed by addition of acetone/methanol (1:1) mixture in amount of 250 μl/well. In 1 min the cells were washed 3 times with PBS (Phosphate Buffered Saline) solution. Then the cells were blocked by addition of 10% fetal calf serum in PBS solution in amount of 150 μl/well for 1 h at room temperature. After that the cells were incubated with mouse monoclonal antibodies to cor-antigen HCV, clon C7-50 (Source: Affinity BioReagents; Catalogue: MA1-080) (100 μl/well, working dilution—1:500 in 10% fetal calf serum in PBS solution) for 2 h at 37° C. The cells were washed 6 times with PBS/0.05% Tween 20 solution, then, they were incubated for 1 h with goat anti-mouse immunoglobulin antibodies (conjugated with horseradish peroxidase, 100 μl/well, working dilution—1:2500 in 10% fetal calf serum in PBS solution). The cells were washed 6 times with PBS/0.05% Tween 20 solution, once with PBS solution, after that substrate (1 tablet of o-phenylenediamine (oPD)+12 ml citrate/phosphate buffer+5 μl 30% H2O2) in amount of 100 μl/well was added. The plates were kept for 30 min in the dark at room temperature. The reaction was arrested by the adding 2N H2SO4 in amount of 100 μl/well, and optical density (at wavelength 490 nm) was measured by means of multiscan plate reader Victor3 V 1420 (Perkin Elmer). IC50 values (concentration of test compound, lowering the level of virus RNA-replicon by 50%) for every tested compound were calculated using XLfit 4 program.

Data set [2] can be described thus: Cytotoxicity determination, ATPLite kit. In kind it is cell-based, human. Particulars: human; Huh7 cells, genotype 1b, 10% FBS. On the procedure:
(§2) Cytotoxicity of the test compounds (CC50) was investigated in experiments on the human hepatoma cell line Huh7. Metabolic activity of cells was determined using ATPLite kit (Perkin Elmer, Boston, USA) in accordance with manufacturer instructions. Cytotoxic action was estimated by seeding the cells into black microplate with transparent bottom (96 wells, 10^4 cells to each well). Three independent repeats were used for each test compound. The tested compounds were added in 18 h, after that the cells were incubated together with the compounds for 96 h. Each well was washed two times with phosphate buffered saline (0.2 ml/well) and then the cells were lysed by adding cell buffer (50 μl/well) (all mentioned reagents are included in ATPLite kit). The microplate was incubated for 5 min on a rotating platform at 600 r/min, after that 50 μl of substrate solution (a part of ATPLite kit) was added into each well. The microplate was incubated for additional 5 min on a rotating platform at 600 r/min, kept for 10 min in the dark; after that luminescence was measured using TopCount NXT instrument (Packard, Perkin Elmer). CC50 Value corresponding to concentration of tested compound at which 50% of cells were ruined was used as quantitative characteristic for cytotoxicity estimation. Calculation of CC50 value: for calculation of inhibition effectiveness (% Inh) the following equation was used: % Inh=[(L^pos−L^ex)/L^pos−L^neg)]*100%, where L^pos—positive control, luminescence in the wells with cells without compounds; L^neg—negative control, luminescence in the wells with medium without cells; L^ex—luminescence in wells with a compound of definite concentration. Then, CC50 values were calculated using XLfit 4 program.
(In general: ATP-based viability assays read luminescence as a measure of living cells.)

The test system of data set [3] is subgenomic RNA-replicon HCV (genotype 1b). In words: Antiviral activity in Huh7 cells with subgenomic HCV RNA-replicon, ELISA on viral cor-antigen (genotype 1b). The data set is classed as cell-based. The procedure: as §1
The subject of data set [4] is subgenomic RNA-replicon HCV (genotype 2a). In words: Antiviral activity in Huh7 cells with subgenomic HCV RNA-replicon, ELISA on viral cor-antigen (genotype 2a). In kind it is cell-based. The procedure: as §1
The subject of the next data set is viral hepatitis C. Particulars: together with Daclatasvir; previously untreated patients; without interferon and Ribavirin; intermediate data; cited from earlier work.
Data set [5] concerns human hepatoma cell line Huh7. In words: Cytotoxicity determination, ATPLite kit. In kind it is cell-based. The following applies: Huh7 cells, genotype 1b, 10% FBS. On the procedure:
as §2

The mark [6] stands for this setting: Hepatitis C virus, Huh-7, Huh7 replicon, genotype 1a, 10% FBS, read-out: EC50, HCV genotype 1a.
Setting [7] is: Hepatitis C virus, Huh-7, read-out: EC50, HCV genotype 1b.
The mark [8] stands for this setting: Hepatitis C virus, Huh-7, Huh7 replicon, genotype 2a, 10% FBS, read-out: EC50, HCV genotype 2a.
The mark [9] stands for this setting: Huh7 replicon, genotype 1a, 10% FBS, read-out: EC50, HCV genotype 1a.
Where [10] appears, read: Huh7 replicon, genotype 1b, 10% FBS, read-out: EC50, HCV genotype 1b.
Where [11] appears, read: Huh7 replicon, genotype 2a, 10% FBS, read-out: EC50, HCV genotype 2a.

Read-outs that look alike come from different tables or passages of the source.

In the case of `CC(C)OC(=O)[C@H](C)NP(=O)(OC[C@H]1O[C@@H](n2ccc(NC(=O)CN(C)C)nc2=O)C(F)(F)[C@@H]1O)Oc1ccccc1` (stereo partly drawn) [1.1.2(1), iso-propyl (S)-2-({(2R,3R,5R)-5-[4-(2-dimethylamino-acetylamino)-2-oxo-2H-pyrimidin-1-yl]-4,4-difluoro-3-hydroxy-tetrahydro-furan-2-ylmethoxy]-phenoxy-phosphorylamino}-propionate], the EC50 (as a rule, the concentration needed to bring the measured effect to its halfway point) in data set [1] (setting [6]) was determined as 106 nM; in data set [3] (setting [7]) it was 35 nM; in data set [4] (setting [8]), 116 nM. Further, the cytotoxic concentration (CC50) (in general, the concentration at which the toxic effect on the cells reaches its halfway point) at 96 h in data set [2] is greater than 10000 nM.

For `CC(C)OC(=O)[C@H](C)NP(=O)(OC[C@H]1O[C@@H](n2ccc(NC(=O)[C@H](NC(=O)OC(C)(C)C)C(C)C)nc2=O)C(F)(F)[C@@H]1O)Oc1ccccc1` (some centres unmarked) [1.1.2(2)], the EC50 stood at 95.6 nM in data set [1] (setting [6]), 60.6 nM in data set [3] (setting [7]) and 78.9 nM in data set [4] (setting [8]). In addition, the half-maximal cytotoxic concentration (CC50) at 96 h in data set [2] is greater than 10000 nM.

As for `CC(C)OC(=O)C(C)NP(=O)(OCC1OC(n2ccc(NC(=O)C(NC(=O)OC(C)(C)C)C(C)C)nc2=O)C(F)(F)C1O)Oc1ccccc1` (centres unmarked) [1.1.2(3)], the concentration giving a half-maximal response (EC50) in data set [1] (Hepatitis C virus, Huh-7, read-out: EC50, HCV genotype 1a) was determined as 182 nM; in data set [3] (setting [7]) it was 60.9 nM; in data set [4] (Hepatitis C virus, Huh-7, read-out: EC50, HCV genotype 2a) it was 69.4 nM. This compound also had a CC50 at 96 h in data set [2] greater than 10000 nM.

As to `CC(C)OC(=O)[C@H](C)NP(=O)(OC[C@H]1OC(n2ccc(NC(=O)[C@@H]3CCCN3C)nc2=O)C(F)(F)[C@@H]1O)Oc1ccc(Cl)cc1` (some centres unmarked) [1.1.2(6)], the EC50 was 124 nM in data set [1] (setting [6]), 14.4 nM in data set [3] (setting [7]) and 79.3 nM in data set [4] (setting [8]). In addition, in data set [2], the half-maximal cytotoxic concentration (CC50) at 96 h is greater than 10000 nM.

Regarding `CC(C)OC(=O)[C@H](C)N[P@](=O)(OC[C@H]1O[C@@H](n2ccc(=O)[nH]c2=O)[C@](C)(F)[C@@H]1O)Oc1ccccc1` [PSI-7977, iso-propyl (S)-2-{(S)-[(2R,3R,4R,5R)-5-(2,4-dioxo-3,4-dihydro-2H-pyrimidin-1-yl)-4-fluoro-3-hydroxy-4-methyl-tetrahydro-furan-2-ylmethoxy]-phenoxy-phosphorylamino}-propanoate, reference compound], the “positive result in patients” value in the data set on viral hepatitis C is listed as 100%. The figures for the EC50 in data set [1] (setting [9]), in data set [3] (setting [10]) and in data set [4] (setting [11]) were 292 nM, 91.8 nM and 88.4 nM, respectively. The 50% cytotoxic concentration (CC50) in data set [5] is greater than 10000 nM.

In the case of `CC(C)OC(=O)[C@H](C)NP(=O)(OC[C@H]1OC(n2ccc(N)nc2=O)C(F)(F)[C@@H]1O)Oc1ccccc1` (stereo partly drawn) [compound 2, (S)-iso-propyl 2-((((2R,3R)-5-(4-aminooxopyrimidin-1(2H)-yl)-3-hydroxy-2-4,4-difluoro-tetrahydrofuran-2-yl)methoxy)(phenoxy)phosphorylamino)propanoate], the half-maximal effective concentration (EC50) is 114 nM in data set [1] (setting [9]), 13.9 nM in data set [3] (setting [10]) and 57.2 nM in data set [4] (setting [11]). This compound registered a CC50 in data set [5] greater than 10000 nM.

In the case of `CC(=O)O[C@@H]1[C@@H](COP(=O)(N[C@@H](C)C(=O)OC(C)C)Oc2ccccc2)OC(n2ccc(N)nc2=O)C1(F)F` (stereo partly drawn) [compound 3, (S)-iso-propyl 2-((((2R,3R)-3-acetoxy-5-(4-amino-2-oxopyrimidin-1(2H)-yl)-4,4-difluoro-tetrahydrofuran-2-yl)methoxy)(phenoxy)phosphorylamino)propanoate], the results for the concentration for a half-maximal effect (EC50) in data set [1] (setting [6]), in data set [3] (setting [7]) and in data set [4] (setting [8]) were 141 nM, 15.7 nM and 61 nM, respectively. For the same compound, the 50% cytotoxic concentration (CC50) at 96 h in data set [2] is greater than 10000 nM.
